In ChEMBL document CHEMBL5291721, “A preclinical secondary pharmacology resource illuminates target-adverse drug reaction associations of marketed drugs” (Nat Commun, 2023):

Legend:
[1] = biological target: T1, Alpha-1A adrenergic receptor (Homo sapiens, UniProt P35348); format: functional, cell-based
T1 sequence (P35348 whole entry): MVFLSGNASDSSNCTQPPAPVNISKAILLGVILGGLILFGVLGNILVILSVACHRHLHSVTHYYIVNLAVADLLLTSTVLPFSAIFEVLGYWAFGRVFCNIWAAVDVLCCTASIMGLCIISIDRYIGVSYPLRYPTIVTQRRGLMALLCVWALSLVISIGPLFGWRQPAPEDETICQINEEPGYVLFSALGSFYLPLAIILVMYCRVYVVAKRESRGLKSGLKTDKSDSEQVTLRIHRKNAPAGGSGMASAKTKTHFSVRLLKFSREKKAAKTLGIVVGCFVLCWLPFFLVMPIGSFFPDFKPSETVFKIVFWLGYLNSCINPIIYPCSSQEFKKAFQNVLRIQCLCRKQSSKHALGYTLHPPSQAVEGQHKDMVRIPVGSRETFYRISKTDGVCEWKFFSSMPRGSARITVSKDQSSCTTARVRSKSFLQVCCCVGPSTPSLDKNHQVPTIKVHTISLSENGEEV

[2] = biological target: T2, Muscarinic acetylcholine receptor M1 (Homo sapiens, UniProt P11229); format: functional, cell-based
T2 sequence (P11229 whole entry): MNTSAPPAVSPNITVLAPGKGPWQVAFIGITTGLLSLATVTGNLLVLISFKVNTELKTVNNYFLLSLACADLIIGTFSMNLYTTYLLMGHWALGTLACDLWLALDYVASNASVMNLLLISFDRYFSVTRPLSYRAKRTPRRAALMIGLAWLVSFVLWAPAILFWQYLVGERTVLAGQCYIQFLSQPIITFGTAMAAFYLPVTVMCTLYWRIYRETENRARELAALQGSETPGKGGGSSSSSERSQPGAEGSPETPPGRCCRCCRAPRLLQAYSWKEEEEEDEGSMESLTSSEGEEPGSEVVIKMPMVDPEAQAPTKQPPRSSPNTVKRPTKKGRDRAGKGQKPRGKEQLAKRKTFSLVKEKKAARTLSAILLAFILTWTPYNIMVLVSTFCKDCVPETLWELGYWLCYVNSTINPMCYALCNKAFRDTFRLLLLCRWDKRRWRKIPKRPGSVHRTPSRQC

[3] = biological target: T3, Gamma-aminobutyric acid receptor subunit alpha-1 (Rattus norvegicus, UniProt P62813)
T3 sequence (P62813 whole entry): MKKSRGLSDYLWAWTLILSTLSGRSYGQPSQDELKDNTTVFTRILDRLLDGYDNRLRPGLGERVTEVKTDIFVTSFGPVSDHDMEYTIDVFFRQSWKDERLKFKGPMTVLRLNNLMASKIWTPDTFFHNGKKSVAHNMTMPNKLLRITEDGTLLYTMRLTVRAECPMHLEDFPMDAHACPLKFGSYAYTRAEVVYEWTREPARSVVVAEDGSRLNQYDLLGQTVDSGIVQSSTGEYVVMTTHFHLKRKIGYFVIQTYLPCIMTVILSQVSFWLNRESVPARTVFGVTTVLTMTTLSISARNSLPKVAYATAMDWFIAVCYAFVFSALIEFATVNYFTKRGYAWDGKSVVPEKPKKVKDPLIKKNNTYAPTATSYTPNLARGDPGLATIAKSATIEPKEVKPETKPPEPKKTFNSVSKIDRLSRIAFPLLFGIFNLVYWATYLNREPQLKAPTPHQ

Adenosine receptor A1 = biological target: T4, Adenosine receptor A1 (Homo sapiens, UniProt P30542)
T4 sequence (P30542 whole entry): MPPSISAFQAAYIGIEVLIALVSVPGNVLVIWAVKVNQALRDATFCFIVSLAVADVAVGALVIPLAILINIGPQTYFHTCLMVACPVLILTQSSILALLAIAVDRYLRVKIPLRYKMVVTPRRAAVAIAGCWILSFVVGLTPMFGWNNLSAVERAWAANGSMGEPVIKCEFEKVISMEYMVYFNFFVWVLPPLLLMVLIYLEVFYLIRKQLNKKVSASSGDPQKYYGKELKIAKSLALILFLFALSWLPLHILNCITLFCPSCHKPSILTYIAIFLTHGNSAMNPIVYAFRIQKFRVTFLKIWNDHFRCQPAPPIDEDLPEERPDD

[4] = biological target: Beta-2 adrenergic receptor (Homo sapiens, UniProt P07550)
Sequence of Beta-2 adrenergic receptor (P07550 whole entry): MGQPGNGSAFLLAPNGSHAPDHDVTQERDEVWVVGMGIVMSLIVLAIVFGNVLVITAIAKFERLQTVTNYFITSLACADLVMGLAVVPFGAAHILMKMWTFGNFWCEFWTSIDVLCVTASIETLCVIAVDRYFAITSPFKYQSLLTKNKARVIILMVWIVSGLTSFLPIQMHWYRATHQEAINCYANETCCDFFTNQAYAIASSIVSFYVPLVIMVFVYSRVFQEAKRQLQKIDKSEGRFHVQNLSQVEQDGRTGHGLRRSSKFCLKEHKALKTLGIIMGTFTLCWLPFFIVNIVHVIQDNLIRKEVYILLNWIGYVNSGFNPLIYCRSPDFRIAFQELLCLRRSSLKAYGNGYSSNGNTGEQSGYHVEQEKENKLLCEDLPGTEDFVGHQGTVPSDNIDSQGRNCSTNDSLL

[5] = biological target: T3, Gamma-aminobutyric acid receptor subunit alpha-1; remark: listed apart in the source
[6] = biological target: 5-hydroxytryptamine receptor 2B (Homo sapiens, UniProt P41595); format: functional, cell-based
Sequence of 5-hydroxytryptamine receptor 2B (P41595 whole entry): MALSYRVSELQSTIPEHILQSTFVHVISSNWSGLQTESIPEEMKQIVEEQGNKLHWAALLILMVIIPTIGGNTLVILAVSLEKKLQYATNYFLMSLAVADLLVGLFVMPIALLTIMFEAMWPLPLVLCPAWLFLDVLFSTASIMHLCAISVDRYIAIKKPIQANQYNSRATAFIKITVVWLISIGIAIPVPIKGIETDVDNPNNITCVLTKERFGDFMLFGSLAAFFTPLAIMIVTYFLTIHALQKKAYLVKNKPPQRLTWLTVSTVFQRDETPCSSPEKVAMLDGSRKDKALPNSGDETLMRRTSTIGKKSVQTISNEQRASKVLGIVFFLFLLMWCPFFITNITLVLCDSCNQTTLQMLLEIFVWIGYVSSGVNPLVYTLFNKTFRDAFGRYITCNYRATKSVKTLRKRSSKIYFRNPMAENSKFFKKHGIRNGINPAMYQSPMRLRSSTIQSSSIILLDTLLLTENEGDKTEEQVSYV

[7] = biological target: T5, 5-hydroxytryptamine receptor 3A (Homo sapiens, UniProt P46098); format: functional
T5 sequence (P46098 whole entry): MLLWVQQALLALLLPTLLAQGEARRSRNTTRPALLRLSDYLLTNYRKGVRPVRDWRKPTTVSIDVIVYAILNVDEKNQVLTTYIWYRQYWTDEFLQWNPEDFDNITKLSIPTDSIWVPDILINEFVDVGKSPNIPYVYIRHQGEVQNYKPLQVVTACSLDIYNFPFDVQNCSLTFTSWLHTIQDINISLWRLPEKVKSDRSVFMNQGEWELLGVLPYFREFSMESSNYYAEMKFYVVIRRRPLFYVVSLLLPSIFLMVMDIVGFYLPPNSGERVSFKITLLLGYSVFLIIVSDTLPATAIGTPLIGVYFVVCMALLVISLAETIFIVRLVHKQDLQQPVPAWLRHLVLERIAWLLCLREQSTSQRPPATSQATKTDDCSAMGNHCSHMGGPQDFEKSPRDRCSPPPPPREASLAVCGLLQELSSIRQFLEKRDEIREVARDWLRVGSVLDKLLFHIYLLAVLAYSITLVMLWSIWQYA

[8] = biological target: T6, Prostaglandin G/H synthase 1 (Rattus norvegicus, UniProt Q63921); format: functional
T6 sequence (Q63921 whole entry): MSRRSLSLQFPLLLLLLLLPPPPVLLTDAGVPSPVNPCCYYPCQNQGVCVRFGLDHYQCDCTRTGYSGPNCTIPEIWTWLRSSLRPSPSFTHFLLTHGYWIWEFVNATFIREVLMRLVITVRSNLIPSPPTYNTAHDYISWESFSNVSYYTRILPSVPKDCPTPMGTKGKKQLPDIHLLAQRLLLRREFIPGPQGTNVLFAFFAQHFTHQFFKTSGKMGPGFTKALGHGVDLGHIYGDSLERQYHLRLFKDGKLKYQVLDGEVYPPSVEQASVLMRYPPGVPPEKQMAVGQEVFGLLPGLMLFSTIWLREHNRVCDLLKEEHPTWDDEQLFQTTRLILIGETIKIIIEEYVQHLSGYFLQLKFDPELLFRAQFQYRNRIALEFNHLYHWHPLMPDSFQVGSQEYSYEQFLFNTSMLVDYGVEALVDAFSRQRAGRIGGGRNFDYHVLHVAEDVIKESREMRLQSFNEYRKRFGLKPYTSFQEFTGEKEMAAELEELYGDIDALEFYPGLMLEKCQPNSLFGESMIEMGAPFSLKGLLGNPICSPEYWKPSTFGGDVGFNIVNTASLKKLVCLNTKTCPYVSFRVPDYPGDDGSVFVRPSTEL

Histamine H3 receptor = Histamine H3 receptor (Homo sapiens, UniProt Q9Y5N1)
Sequence of Histamine H3 receptor (Q9Y5N1 whole entry): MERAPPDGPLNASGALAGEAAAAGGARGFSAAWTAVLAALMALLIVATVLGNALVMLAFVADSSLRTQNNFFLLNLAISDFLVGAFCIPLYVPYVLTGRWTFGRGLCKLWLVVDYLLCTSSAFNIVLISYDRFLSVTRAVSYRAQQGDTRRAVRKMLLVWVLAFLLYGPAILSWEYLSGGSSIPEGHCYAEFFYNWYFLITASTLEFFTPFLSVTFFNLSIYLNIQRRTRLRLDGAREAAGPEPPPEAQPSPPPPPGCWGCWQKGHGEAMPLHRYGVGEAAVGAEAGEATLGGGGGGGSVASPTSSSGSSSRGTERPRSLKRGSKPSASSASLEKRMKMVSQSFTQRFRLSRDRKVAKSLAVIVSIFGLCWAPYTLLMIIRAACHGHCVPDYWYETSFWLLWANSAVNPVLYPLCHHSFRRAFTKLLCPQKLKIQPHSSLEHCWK

[9] = biological target: T1, Alpha-1A adrenergic receptor; format: functional, cell-based; remark: listed apart in the source
Further: assay procedure not described here.

| Compound | AC50 [1] | AC50 [2] | AC50 [3] | also measured |
| --- | --- | --- | --- | --- |
| C=CCN1CC[C@]23CCCC[C@H]2[C@H]1Cc1ccc(O)cc13 [LEVALLORPHAN] | > 30 µM | > 30 µM | > 30 µM | – |
| Nc1ccc(C(=O)Oc2ccccc2)c(O)c1 [PHENYL AMINOSALICYLATE] | 23 µM | > 30 µM | > 30 µM | – |
| CC(=O)Oc1cc(C(F)(F)F)ccc1C(=O)O [TRIFLUSAL] | > 30 µM | > 30 µM | > 30 µM | – |
| CN1CCC(=C2c3ccccc3Sc3ccccc32)CC1 [PIMETHIXENE] | 0.121 µM | > 30 µM | > 30 µM | – |
| CCc1nc(C(N)=O)c(Nc2ccc(N3CCC(N4CCN(C)CC4)CC3)c(OC)c2)nc1NC1CCOCC1 [GILTERITINIB] | > 0.3 µM | > 30 µM | > 30 µM | – |
| CC(C)(O)CNc1nc(Nc2ccnc(C(F)(F)F)c2)nc(-c2cccc(C(F)(F)F)n2)n1 [ENASIDENIB] | 20.3 µM | > 30 µM | > 30 µM | – |
| N#Cc1ccc2c(c1)N(CCCN1CCC(O)CC1)c1ccccc1S2 [PERICIAZINE] | – | > 30 µM | 29.8 µM | – |
| C/C=C/C/C=C/CCC(=O)[C@H]1O[C@H]1C(N)=O [CERULENIN] | > 30 µM | > 30 µM | > 30 µM | – |
| O=C(O)c1cc(/N=N/c2ccc(O)c(C(=O)O)c2)ccc1O [OLSALAZINE] | > 30 µM | > 30 µM | > 30 µM | – |
| CC[C@H](C)C[C@H](C)CCCCCCCCC(=O)N[C@H]1C[C@@H](O)[C@@H](NCCN)NC(=O)[C@@H]2[C@@H](O)CCN2C(=O)[C@H]([C@H](O)CCN)NC(=O)[C@H]([C@H](O)[C@@H](O)c2ccc(O)cc2)NC(=O)[C@@H]2C[C@@H](O)CN2C(=O)[C@H]([C@@H](C)O)NC1=O [CASPOFUNGIN] | 13 µM | > 30 µM | > 30 µM | – |
| CC[C@H]1OC(=O)[C@H](C)C(=O)[C@H](C)[C@@H](O[C@@H]2O[C@H](C)C[C@H](N(C)C)[C@H]2O)[C@](C)(OC)C[C@@H](C)C(=O)[C@H](C)[C@H]2N(CCCCn3cnc(-c4cccnc4)c3)C(=O)O[C@]12C [TELITHROMYCIN] | > 30 µM | > 30 µM | > 30 µM | – |
| OC[C@H]1O[C@@H](c2ccc(F)c(Cc3cc4ccccc4s3)c2)[C@H](O)[C@@H](O)[C@@H]1O [IPRAGLIFLOZIN] | 22.2 µM | > 30 µM | > 30 µM | – |
| O=C1/C(=C2\Nc3ccc(S(=O)(=O)O)cc3C2=O)Nc2ccc(S(=O)(=O)O)cc21 [INDIGOTINDISULFONATE] | > 30 µM | > 30 µM | > 30 µM | – |
| CC[C@H](c1ccc(O)cc1)[C@@H](CC)c1ccc(O)cc1 [HEXESTROL] | > 3 µM | 22.8 µM | > 30 µM | – |
| CNC(=O)Oc1cccc2ccccc12 [CARBARIL] | > 30 µM | > 30 µM | > 30 µM | – |
| CCCN(CCC)C(=O)Cc1c(-c2ccc(Cl)cc2)nc2ccc(Cl)cn12 [ALPIDEM] | > 10 µM | > 30 µM | 0.02 µM | AC50 (Adenosine receptor A1): > 30 µM; AC50 [4]: > 30 µM; AC50 [5]: > 30 µM; AC50 [6]: > 30 µM; AC50 [7]: > 30 µM; AC50 [8]: > 30 µM; AC50 (Histamine H3 receptor): > 30 µM |
| CC(=O)O[C@]1(C(C)=O)CC[C@H]2[C@@H]3C=C(C)C4=CC(=O)CC[C@@H]4[C@H]3CC[C@@]21C [NOMEGESTROL ACETATE] | > 10 µM | > 30 µM | 4.4 µM | AC50 [5]: > 30 µM; AC50 [6]: > 30 µM; AC50 [7]: > 30 µM; AC50 [8]: > 30 µM; AC50 [9]: > 30 µM |
| OC[C@H]1O[C@@H](c2ccc(Cl)c(Cc3ccc(O[C@H]4CCOC4)cc3)c2)[C@H](O)[C@@H](O)[C@@H]1O [EMPAGLIFLOZIN] | > 30 µM | > 30 µM | > 30 µM | – |
| CC(C)C[C@H](NC(=O)CNC(=O)c1cc(Cl)ccc1Cl)B(O)O [IXAZOMIB] | > 30 µM | > 30 µM | > 30 µM | – |
| CCn1cc(C(=O)O)c(=O)c2cc3c(cc21)OCO3 [OXOLINIC ACID] | > 30 µM | > 30 µM | > 30 µM | – |
| FC(F)(F)c1ccc(CNc2ccc(Cc3c[nH]c4ncc(Cl)cc34)cn2)cn1 [PEXIDARTINIB] | 1.8 µM | > 30 µM | > 30 µM | – |
| N[C@@H](CO)C(=O)O [SERINE] | > 30 µM | > 30 µM | > 30 µM | – |
